Source: ChEMBL document CHEMBL5465560, “Selectivity Literature for EUbOPEN Chemogenomic Library” (2024)
Blank lines part the entries; values can stand above or below the compound they belong to.

Columns and labels:
[1] = target: Casein kinase I isoform gamma-3 (Homo sapiens) (UniProt Q9Y6M4); test: Selectivity interaction (Kinase panel (Z-LYTE Assay)) EUB0001632a CSNK1G3; conditions: at 10 µM
[2] = target: T1, Histone-lysine N-methyltransferase NSD3 (Homo sapiens) (UniProt Q9BZ95); test: Selectivity interaction (Methyltransferase screen (radiometric assays, panel of 8 PRMTs, 21 protein lysine methyltransferases, 3 DNA methyltransferases, and one RNA methyltransferase)) EUB0000271b NSD3
T1 sequence (whole entry): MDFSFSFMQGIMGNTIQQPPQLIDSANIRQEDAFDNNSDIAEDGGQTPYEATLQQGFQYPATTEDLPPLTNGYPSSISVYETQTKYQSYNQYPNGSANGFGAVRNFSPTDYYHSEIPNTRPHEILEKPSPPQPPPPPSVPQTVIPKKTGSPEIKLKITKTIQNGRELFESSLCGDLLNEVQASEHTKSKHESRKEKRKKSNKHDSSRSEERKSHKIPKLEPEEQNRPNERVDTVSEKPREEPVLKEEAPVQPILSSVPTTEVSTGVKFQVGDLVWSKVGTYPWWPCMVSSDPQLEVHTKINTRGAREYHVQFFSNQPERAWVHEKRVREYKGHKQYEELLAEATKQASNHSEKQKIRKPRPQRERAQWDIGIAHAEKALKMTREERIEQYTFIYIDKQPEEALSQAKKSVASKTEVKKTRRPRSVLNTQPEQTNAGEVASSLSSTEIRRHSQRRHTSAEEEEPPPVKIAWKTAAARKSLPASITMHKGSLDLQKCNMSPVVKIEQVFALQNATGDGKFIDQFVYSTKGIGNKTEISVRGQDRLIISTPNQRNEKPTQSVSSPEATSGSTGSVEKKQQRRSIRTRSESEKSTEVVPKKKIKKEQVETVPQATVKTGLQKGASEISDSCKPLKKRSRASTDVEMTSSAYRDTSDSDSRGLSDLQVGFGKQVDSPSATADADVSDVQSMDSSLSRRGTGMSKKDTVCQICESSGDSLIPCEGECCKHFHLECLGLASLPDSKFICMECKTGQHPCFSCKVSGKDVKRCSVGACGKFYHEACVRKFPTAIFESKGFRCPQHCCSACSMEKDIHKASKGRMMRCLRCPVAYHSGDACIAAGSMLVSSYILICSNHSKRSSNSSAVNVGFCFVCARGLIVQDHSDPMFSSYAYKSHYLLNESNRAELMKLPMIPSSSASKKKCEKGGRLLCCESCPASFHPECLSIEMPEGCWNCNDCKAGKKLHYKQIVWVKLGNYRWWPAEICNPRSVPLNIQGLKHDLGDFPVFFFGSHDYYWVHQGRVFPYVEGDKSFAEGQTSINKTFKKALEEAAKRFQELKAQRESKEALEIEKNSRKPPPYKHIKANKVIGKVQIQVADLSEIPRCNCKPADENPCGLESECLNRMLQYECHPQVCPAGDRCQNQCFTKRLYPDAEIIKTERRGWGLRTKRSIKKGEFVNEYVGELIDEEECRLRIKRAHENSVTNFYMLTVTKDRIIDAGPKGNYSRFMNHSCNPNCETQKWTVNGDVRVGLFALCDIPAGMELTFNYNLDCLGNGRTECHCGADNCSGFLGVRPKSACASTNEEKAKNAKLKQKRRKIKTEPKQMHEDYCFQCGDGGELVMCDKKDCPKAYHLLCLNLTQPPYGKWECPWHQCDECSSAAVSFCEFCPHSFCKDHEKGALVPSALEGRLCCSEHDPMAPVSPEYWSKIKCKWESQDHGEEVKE

[3] = target: T2, Receptor-interacting serine/threonine-protein kinase 1 (Homo sapiens) (UniProt Q13546); test: Selectivity interaction (KinomeScan (DiscoverX)) EUB0001619a RIPK1; conditions: at 1 µM
T2 sequence (whole entry): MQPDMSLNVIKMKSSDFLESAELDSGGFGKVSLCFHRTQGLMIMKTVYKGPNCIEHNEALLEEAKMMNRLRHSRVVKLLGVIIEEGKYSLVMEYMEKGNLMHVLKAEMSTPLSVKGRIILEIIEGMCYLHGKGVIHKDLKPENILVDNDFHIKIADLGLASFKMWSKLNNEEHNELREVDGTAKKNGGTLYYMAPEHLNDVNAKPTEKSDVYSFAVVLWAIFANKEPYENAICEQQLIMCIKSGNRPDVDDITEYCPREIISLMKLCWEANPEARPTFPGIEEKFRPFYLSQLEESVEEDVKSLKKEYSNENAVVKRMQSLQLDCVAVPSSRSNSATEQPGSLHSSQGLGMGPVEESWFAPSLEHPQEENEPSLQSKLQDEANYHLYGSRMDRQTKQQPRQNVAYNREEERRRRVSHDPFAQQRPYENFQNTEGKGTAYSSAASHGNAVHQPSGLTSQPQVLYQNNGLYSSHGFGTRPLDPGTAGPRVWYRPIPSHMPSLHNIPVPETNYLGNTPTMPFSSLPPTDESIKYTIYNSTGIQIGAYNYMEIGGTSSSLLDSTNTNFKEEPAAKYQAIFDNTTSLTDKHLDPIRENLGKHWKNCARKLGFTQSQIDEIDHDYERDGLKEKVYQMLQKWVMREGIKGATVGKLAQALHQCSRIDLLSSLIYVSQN

Casein kinase I isoform gamma-3 (Homo sapiens), sequence (Q9Y6M4 whole entry, looked up, canonical isoform): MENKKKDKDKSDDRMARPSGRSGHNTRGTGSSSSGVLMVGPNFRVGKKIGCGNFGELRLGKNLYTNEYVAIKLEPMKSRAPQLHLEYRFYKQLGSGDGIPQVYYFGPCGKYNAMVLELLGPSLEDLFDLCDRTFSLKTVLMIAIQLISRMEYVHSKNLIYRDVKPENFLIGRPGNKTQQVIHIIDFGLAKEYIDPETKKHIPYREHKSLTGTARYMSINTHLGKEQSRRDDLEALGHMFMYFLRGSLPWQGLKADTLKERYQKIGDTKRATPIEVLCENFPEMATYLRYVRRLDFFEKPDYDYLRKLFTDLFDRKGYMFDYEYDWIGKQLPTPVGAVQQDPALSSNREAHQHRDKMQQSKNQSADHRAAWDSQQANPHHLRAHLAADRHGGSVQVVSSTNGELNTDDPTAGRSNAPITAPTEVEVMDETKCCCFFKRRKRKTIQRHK

- % of control [1]: 6.17%
SMILES: Cn1cc(-n2cnc3c(NCc4nc5cc(Cl)c(Cl)cc5[nH]4)nc(N4CCOCC4)nc32)cn1

SMILES: Cc1cc(C)cc([C@@H]2c3cc(C)ccc3NC(=O)CN2C(=O)c2ccc(Br)s2)c1
- % of activity ([2]; at 1 µM): 99.3%
- % of activity ([2]; at 10 µM): 104%

SMILES: N#Cc1cccc(-c2c[nH]c3ncnc(N4CCOCC4)c23)c1
- % of control [3]: 100%
